Activity calls are given as the source filed them. No cut-off for these calls is given here.
Key:
[1] = Cytotoxicity activity against human PBMC cells assessed as inhibition of cell proliferation incubated for 72 hrs by MTT assay; assay type: toxicity, cell-based
THP-1 [2] = assay: Antiproliferative activity against human THP-1 cells assessed as inhibition of cell proliferation at 100 uM incubated for 24 to 72 hrs by MTT assay; assay type: functional, cell-based; conditions: time 24-72 hrs, TDE = time-dependent effect
A549 [3] = assay: Antiproliferative activity against human A549 cells assessed as inhibition of cell proliferation at 0.1 to 100 uM incubated upto 72 hrs by MTT assay; assay type: functional, cell-based; conditions: dose 0.1-100 µM
U-937 [4] = assay: Antiproliferative activity against human U-937 cells assessed as inhibition of cell proliferation at 100 uM incubated for 24 to 72 hrs by MTT assay; assay type: functional, cell-based; conditions: time 24-72 hrs, TDE = time-dependent effect
HCT-116 [5] = assay: Antiproliferative activity against human HCT-116 cells assessed as inhibition of cell proliferation at 0.1 to 100 uM incubated upto 72 hrs by MTT assay; assay type: functional, cell-based; conditions: dose 0.1-100 µM
DU-145 [6] = assay: Antiproliferative activity against human DU-145 cells assessed as inhibition of cell proliferation at 100 uM incubated for 24 to 72 hrs by MTT assay; assay type: functional, cell-based; conditions: time 24-72 hrs, TDE = time-dependent effect
DU-145 [7] = assay: Antiproliferative activity against human DU-145 cells assessed as inhibition of cell proliferation incubated for 72 hrs by MTT assay; assay type: functional, cell-based; conditions: DU-145, 72 h
U-937 [8] = assay: Antiproliferative activity against human U-937 cells assessed as inhibition of cell proliferation at 0.1 to 100 uM incubated upto 72 hrs by MTT assay; assay type: functional, cell-based; conditions: dose 0.1-100 µM
A549 [9] = assay: cells; conditions: Homo sapiens, A549, 72 h
Description: Antiproliferative activity against human A549 cells assessed as inhibition of cell proliferation incubated for 72 hrs by MTT assay

[10] = molecular target: T1, DNMT3A2/3L complex (Homo sapiens) (UniProt Q9Y6K1+Q9UJW3); assay: Inhibition of N-terminal His-tagged human DNMT3A (623 to 912 residues)/N-terminal GST-tagged human DNMT3L (160 to 387 residues) co-expressed in baculovirus infected Sf9 cells assessed as DNA methylation using DNA oligonucleotide IDT-01 as substrate at 100 uM preincubated for 15 mins followed by substrate addition in presence of [3H]-SAM and measured after 4 hrs by radioactive methylation assay; conditions: time 255.0 min
T1 sequence (Q9UJW3 whole entry, looked up, the tested form may be a part): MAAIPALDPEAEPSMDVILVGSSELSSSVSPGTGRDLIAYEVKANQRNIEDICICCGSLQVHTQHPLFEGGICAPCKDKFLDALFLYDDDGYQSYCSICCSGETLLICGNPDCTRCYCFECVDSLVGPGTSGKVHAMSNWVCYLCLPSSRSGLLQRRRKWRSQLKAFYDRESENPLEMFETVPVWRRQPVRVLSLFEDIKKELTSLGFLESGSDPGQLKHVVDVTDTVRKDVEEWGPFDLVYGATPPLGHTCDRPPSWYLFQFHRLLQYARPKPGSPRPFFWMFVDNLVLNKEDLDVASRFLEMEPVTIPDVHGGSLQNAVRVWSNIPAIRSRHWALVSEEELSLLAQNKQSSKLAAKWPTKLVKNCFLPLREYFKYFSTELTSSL
T1 sequence (Q9Y6K1 whole entry, looked up, the tested form may be a part): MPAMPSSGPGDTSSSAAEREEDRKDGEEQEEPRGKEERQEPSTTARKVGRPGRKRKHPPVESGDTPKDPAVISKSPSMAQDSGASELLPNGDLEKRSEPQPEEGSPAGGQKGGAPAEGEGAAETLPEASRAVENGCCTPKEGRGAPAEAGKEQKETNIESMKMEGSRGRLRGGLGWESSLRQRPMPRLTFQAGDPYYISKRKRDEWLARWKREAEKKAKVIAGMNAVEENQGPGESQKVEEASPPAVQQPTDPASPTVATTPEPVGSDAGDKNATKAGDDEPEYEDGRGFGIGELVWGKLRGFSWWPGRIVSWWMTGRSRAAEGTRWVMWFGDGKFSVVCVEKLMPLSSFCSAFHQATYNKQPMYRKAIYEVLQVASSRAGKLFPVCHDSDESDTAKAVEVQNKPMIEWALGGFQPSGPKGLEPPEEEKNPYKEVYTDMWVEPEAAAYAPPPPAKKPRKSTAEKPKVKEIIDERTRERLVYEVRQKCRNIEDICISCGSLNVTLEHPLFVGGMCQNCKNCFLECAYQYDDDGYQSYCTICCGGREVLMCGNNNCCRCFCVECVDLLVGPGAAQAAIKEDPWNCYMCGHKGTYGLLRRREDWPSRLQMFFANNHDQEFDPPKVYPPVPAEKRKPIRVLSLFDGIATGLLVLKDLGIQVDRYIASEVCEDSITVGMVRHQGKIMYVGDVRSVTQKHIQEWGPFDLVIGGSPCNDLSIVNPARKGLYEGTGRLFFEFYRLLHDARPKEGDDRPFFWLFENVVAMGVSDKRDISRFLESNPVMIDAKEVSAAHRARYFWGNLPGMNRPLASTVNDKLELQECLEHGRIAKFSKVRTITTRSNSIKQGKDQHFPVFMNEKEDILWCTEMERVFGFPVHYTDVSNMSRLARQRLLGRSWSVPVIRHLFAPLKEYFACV

[11] = molecular target: DNA (cytosine-5)-methyltransferase 1 (Homo sapiens, UniProt P26358); assay: Inhibition of N-terminal GST-tagged full-length recombinant human DNMT1 assessed as DNA methylation using pdI-pdC DNA as substrate preincubated for 15 mins followed by substrate addition in presence of [3H]-SAM and measured after 150 mins by radioactive methylation assay
DNA (cytosine-5)-methyltransferase 1, sequence (P26358 whole entry): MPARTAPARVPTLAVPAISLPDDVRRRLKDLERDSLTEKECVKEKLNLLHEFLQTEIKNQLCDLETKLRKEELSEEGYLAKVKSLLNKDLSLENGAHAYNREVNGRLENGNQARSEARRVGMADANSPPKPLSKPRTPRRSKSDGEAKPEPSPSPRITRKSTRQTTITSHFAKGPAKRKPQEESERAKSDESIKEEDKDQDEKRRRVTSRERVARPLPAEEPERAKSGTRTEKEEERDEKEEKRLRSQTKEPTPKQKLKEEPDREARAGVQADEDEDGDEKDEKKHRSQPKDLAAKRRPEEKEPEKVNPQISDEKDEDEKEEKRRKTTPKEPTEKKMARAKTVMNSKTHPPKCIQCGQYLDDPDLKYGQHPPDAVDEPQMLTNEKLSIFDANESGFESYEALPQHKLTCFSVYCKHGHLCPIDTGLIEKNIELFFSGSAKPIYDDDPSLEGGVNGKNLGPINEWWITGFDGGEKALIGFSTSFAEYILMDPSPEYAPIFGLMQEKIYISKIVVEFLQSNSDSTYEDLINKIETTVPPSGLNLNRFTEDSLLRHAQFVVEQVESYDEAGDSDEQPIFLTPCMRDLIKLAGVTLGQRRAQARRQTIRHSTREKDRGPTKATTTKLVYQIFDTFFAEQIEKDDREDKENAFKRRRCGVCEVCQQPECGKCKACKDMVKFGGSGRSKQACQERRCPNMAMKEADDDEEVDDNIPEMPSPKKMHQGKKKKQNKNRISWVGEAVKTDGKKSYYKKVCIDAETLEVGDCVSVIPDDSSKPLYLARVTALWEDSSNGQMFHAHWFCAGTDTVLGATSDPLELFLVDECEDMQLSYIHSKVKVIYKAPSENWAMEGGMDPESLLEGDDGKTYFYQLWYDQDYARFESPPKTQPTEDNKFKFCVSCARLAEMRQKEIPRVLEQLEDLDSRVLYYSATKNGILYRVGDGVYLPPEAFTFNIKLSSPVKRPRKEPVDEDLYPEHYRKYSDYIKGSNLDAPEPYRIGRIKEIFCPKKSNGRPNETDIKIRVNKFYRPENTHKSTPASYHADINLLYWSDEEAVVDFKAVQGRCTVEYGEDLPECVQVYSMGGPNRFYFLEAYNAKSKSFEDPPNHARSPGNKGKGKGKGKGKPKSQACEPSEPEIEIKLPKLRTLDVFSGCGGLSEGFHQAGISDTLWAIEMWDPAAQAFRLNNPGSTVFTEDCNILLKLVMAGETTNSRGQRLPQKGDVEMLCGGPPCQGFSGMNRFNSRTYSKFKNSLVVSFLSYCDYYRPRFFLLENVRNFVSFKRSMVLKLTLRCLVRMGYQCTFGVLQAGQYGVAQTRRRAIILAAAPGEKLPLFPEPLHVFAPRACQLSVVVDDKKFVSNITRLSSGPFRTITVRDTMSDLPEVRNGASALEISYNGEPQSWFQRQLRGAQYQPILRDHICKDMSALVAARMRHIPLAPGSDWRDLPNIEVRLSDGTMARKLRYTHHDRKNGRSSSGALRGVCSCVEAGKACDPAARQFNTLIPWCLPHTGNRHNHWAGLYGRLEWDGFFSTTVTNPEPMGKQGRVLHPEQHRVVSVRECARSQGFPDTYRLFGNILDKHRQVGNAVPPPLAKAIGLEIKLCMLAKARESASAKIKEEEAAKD

K562 [12] = assay: Antiproliferative activity against human K562 cells assessed as inhibition of cell proliferation at 100 uM incubated for 24 to 72 hrs by MTT assay; assay type: functional, cell-based; conditions: time 24-72 hrs, TDE = time-dependent effect
[13] = molecular target: T1, DNMT3A2/3L complex (Homo sapiens); assay: Inhibition of N-terminal His-tagged human DNMT3A (623 to 912 residues)/N-terminal GST-tagged human DNMT3L (160 to 387 residues) co-expressed in baculovirus infected Sf9 cells assessed as DNA methylation using DNA oligonucleotide IDT-01 as substrate at 10 uM preincubated for 15 mins followed by substrate addition in presence of [3H]-SAM and measured after 4 hrs by radioactive methylation assay; conditions: time 255.0 min
[14] = molecular target: DNA (cytosine-5)-methyltransferase 3A (Homo sapiens) (UniProt Q9Y6K1); assay: Inhibition of DNMT3A in human HCT-116 cells assessed as increase in p53 protein level at 1 uM incubated for 72 hrs by Western blot analysis; assay type: cell-based
DNA (cytosine-5)-methyltransferase 3A (Homo sapiens), sequence (Q9Y6K1 whole entry, looked up, the tested form may be a part): as the sequence (Q9Y6K1 whole entry, looked up, the tested form may be a part) above

DNMT3B = DNMT3B (Homo sapiens, UniProt Q9UBC3); assay: Inhibition of N-terminal His-tagged human DNMT3B (564 to 853 residues)/N-terminal GST-tagged human DNMT3L (160 to 387 residues) co-expressed in baculovirus infected Sf9 cells assessed as DNA methylation using DNA oligonucleotide IDT-01 as substrate preincubated for 15 mins followed by substrate addition in presence of [3H]-SAM and measured after 4 hrs by radioactive methylation assay
[15] = molecular target: DNA (cytosine-5)-methyltransferase 3A (Homo sapiens) (UniProt Q9Y6K1); assay: Inhibition of DNMT3A in human HCT-116 cells assessed as downregulation of DNMT3A protein level at 1 uM incubated for 72 hrs by Western blot analysis; assay type: cell-based
K562 [16] = assay: Antiproliferative activity against human K562 cells assessed as inhibition of cell proliferation at 0.1 to 100 uM incubated upto 72 hrs by MTT assay; assay type: functional, cell-based; conditions: dose 0.1-100 µM
HCT-116 [17] = assay: cells; conditions: Homo sapiens, HCT-116, 72 h
Description: Antiproliferative activity against human HCT-116 cells assessed as inhibition of cell proliferation incubated for 72 hrs by MTT assay

THP-1 [18] = assay: Antiproliferative activity against human THP-1 cells assessed as inhibition of cell proliferation at 0.1 to 100 uM incubated upto 72 hrs by MTT assay; assay type: functional, cell-based; conditions: dose 0.1-100 µM
DU-145 [19] = assay: Antiproliferative activity against human DU-145 cells assessed as inhibition of cell proliferation at 0.1 to 100 uM incubated upto 72 hrs by MTT assay; assay type: functional, cell-based; conditions: dose 0.1-100 µM
U-937 [20] = assay: cells; conditions: Homo sapiens, U-937, 72 h
Description: Antiproliferative activity against human U-937 cells assessed as inhibition of cell proliferation incubated for 72 hrs by MTT assay

HCT-116 [21] = assay: Antiproliferative activity against human HCT-116 cells assessed as inhibition of cell proliferation at 100 uM incubated for 24 to 72 hrs by MTT assay; assay type: functional, cell-based; conditions: time 24-72 hrs, TDE = time-dependent effect
THP-1 [22] = assay: Antiproliferative activity against human THP-1 cells assessed as inhibition of cell proliferation incubated for 72 hrs by MTT assay; assay type: functional, cell-based; conditions: THP-1, 72 h
K562 [23] = assay: Antiproliferative activity against human K562 cells assessed as inhibition of cell proliferation incubated for 72 hrs by MTT assay; assay type: functional, cell-based; conditions: K562, 72 h
A549 [24] = assay: Antiproliferative activity against human A549 cells assessed as inhibition of cell proliferation at 100 uM incubated for 24 to 72 hrs by MTT assay; assay type: functional, cell-based; conditions: time 24-72 hrs, TDE = time-dependent effect
[25] = molecular target: T1, DNMT3A2/3L complex (Homo sapiens); assay: Competitive inhibition of N-terminal His-tagged human DNMT3A (623 to 912 residues)/N-terminal GST-tagged human DNMT3L (160 to 387 residues) co-expressed in baculovirus infected Sf9 cells assessed as DNA methylation using varying concentration of oligonucleotide IDT-01 as substrate preincubated for …; conditions: time 255.0 min
[26] = molecular target: T2, Histone-lysine N-methyltransferase EHMT2 (Homo sapiens, UniProt Q96KQ7); assay: Inhibition of N-terminal GST-tagged human G9a expressed in baculovirus infected Sf9 cells using biotinylated histone H3 peptide as substrate preincubated for 15 mins followed by substrate addition in presence of SAM and measured after 60 mins by AlphaLISA assay
T2 sequence (Q96KQ7 whole entry): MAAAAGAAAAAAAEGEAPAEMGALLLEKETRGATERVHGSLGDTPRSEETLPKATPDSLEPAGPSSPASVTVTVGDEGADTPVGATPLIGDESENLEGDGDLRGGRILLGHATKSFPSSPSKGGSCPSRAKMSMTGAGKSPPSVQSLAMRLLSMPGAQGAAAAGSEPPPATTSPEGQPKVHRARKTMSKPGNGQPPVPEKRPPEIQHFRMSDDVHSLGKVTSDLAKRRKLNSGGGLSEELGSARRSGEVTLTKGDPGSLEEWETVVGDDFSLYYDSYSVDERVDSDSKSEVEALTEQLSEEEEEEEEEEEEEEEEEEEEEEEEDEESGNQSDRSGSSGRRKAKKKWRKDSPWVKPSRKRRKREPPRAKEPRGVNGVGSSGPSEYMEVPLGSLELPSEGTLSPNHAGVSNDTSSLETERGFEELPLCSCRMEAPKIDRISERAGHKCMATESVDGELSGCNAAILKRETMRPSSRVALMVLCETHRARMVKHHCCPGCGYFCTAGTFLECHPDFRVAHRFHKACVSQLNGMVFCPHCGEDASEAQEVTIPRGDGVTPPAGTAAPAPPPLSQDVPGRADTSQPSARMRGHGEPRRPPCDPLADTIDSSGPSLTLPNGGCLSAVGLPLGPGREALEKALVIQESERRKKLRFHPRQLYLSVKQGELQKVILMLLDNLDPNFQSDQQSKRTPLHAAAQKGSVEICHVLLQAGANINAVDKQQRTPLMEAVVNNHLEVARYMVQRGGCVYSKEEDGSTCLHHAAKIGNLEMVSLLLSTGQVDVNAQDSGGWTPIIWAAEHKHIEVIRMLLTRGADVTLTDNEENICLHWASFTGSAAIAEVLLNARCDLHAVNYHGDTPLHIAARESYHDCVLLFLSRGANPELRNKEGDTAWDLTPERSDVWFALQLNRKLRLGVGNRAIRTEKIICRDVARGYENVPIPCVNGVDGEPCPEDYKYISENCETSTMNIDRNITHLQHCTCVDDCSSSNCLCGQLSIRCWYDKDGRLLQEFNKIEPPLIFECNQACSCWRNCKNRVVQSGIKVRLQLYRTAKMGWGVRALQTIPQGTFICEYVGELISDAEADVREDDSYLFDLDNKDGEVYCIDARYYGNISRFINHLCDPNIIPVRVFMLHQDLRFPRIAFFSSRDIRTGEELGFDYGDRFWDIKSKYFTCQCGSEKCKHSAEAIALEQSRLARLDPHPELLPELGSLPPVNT

SMILES | IC50 at 72 h [1] [µM] | Activity (THP-1 [2]) | Activity (A549 [3]) | Activity (U-937 [4]) | Activity (HCT-116 [5]) | Activity (DU-145 [6]) | IC50 (DU-145 [7]) [µM] | Activity (U-937 [8]) | IC50 (A549 [9]) [µM] | inhibition [10] [%] | IC50 [11] [µM] | Activity (K562 [12]) | inhibition [13] [%] | p53 protein level increase (active/not active) [14] | IC50 (DNMT3B) [µM] | inhibition [15] | Activity (K562 [16]) | IC50 (HCT-116 [17]) [µM] | Activity (THP-1 [18]) | Activity (DU-145 [19]) | also measured
Cc1oc2ncn(CCN3CCCC3)c(=O)c2c1C(=O)Nc1ccc(S(N)(=O)=O)nc1 | 91 | Tde | Dose-Dependent Effect | Tde | Dose-Dependent Effect | Tde | 1.7 | Dose-Dependent Effect | 2.1 | 93.1 | 13 | Tde | 83.8 | Active | 105 | Active | Dose-Dependent Effect | 0.3 | Dose-Dependent Effect | Dose-Dependent Effect | IC50 (U-937 [20]): 0.7 µM; Activity (HCT-116 [21]): Tde; IC50 (THP-1 [22]): 0.7 µM; IC50 (K562 [23]): 0.5 µM; Activity (A549 [24]): Tde; inhibition [25]: Active; IC50 [26]: > 500 µM
Cc1oc2ncn(CCN(C)C)c(=O)c2c1C(=O)Nc1ccc(S(N)(=O)=O)nc1 | 131 | Tde | Dose-Dependent Effect | Tde | Dose-Dependent Effect | Tde | 3.7 | Dose-Dependent Effect | 4.6 | 81.8 | 20.9 | Tde | 74.7 | Active | 220 | Active | Dose-Dependent Effect | 0.5 | Dose-Dependent Effect | Dose-Dependent Effect | IC50 (U-937 [20]): 2.3 µM; Activity (HCT-116 [21]): Tde; IC50 (THP-1 [22]): 1.8 µM; IC50 (K562 [23]): 1.6 µM; Activity (A549 [24]): Tde; IC50 [26]: > 500 µM
